Test results reported in US20260242391A1 (priority 2023, published 2026).

What was measured:
HL-60 = HL-60 differentiation potency; type: cell-based; conditions: Homo sapiens
in vitro = conditions: human

Structure (SMILES) | EC50 (HL-60) | IC50 (in vitro) | IC50 (in vitro; HL-60 cells)
C[C@H]1[C@@H](Oc2ccc(C(=O)O)cc2Cl)O[C@@H]2O[C@@]3(C)CC[C@H]4[C@H](C)CC[C@@H]1[C@@]24OO3 [Compound 235, 3-chloro-4-(((3R,5aS,6R,8aS, 9R,10S,12R, 12aR)-3,6,9-trimethyldeca-hydro-12H-3,12-epoxy[1,2]dioxepino[4,3-i]isochromen-10-yl)oxy)benzoic acid] | 37.5 nM | 15000 nM | –
CC(C)[C@H](NC(=O)c1ccc(O[C@H]2O[C@@H]3O[C@@]4(C)CC[C@H]5[C@H](C)CC[C@@H]([C@H]2C)[C@@]35OO4)cc1)C(=O)O [Compound 236, (4-(((3R,5aS,6R,8aS, 9R,10S,12R, 12aR)-3,6,9-trimethyldeca-hydro-12H-3,12-epoxy[1,2]dioxepino[4,3-i]isochromen-10-yl)oxy)benzoyl)-L-valine] | 47.4 nM | 9100 nM | –
C[C@H]1[C@@H](O[C@H]2CC[C@@H](C(=O)N[C@@H](CC(F)(F)F)C(=O)O)CC2)O[C@@H]2O[C@@]3(C)CC[C@H]4[C@H](C)CC[C@@H]1[C@@]24OO3 [Compound 237, (S)-4,4,4-trifluoro-2-((1R,4R)-4-(((3R,5aS,6R,8aS, 9R,10S,12R, 12aR)-3,6,9-trimethyldeca-hydro-12H-3,12-epoxy[1,2]dioxepino[4,3-i]isochromen-10-yl)oxy)cyclo-hexane-1-carboxamido) butanoic acid] | 7260 nM | – | > 20000 nM
C[C@H]1[C@@H](Oc2c(F)cc(OCC(=O)O)cc2F)O[C@@H]2O[C@@]3(C)CC[C@H]4[C@H](C)CC[C@@H]1[C@@]24OO3 [Compound 238, 2-(3,5-difluoro-4-(((3R,5aS,6R,8aS, 9R,10S,12R, 12aR)-3,6,9-trimethyldeca-hydro-12H-3,12-epoxy[1,2]dioxepino[4,3-i]isochromen-10-yl)oxy)phenoxy) acetic acid] | 71.3 nM | 6910 nM | –
C[C@H]1[C@@H](Oc2ccc(CC(=O)N[C@H]3CC[C@@H](C(=O)O)C3)cc2)O[C@@H]2O[C@@]3(C)CC[C@H]4[C@H](C)CC[C@@H]1[C@@]24OO3 [Compound 239, (1R,3S)-3-(2-(4-(((3R,5aS,6R,8aS, 9R,10S,12R, 12aR)-3,6,9-trimethyldeca-hydro-12H-3,12-epoxy[1,2]dioxepino[4,3-i]isochromen-10-yl)oxy)phenyl)acetamido)cyclo-pentane-1-carboxylic acid] | 21.9 nM | 16200 nM | –
C[C@H]1[C@@H](OC[C@H]2CC[C@@H](C(=O)N[C@H]3C[C@@H](C(=O)O)C3)CC2)O[C@@H]2O[C@@]3(C)CC[C@H]4[C@H](C)CC[C@@H]1[C@@]24OO3 [Compound 241, (1S,3s)-3-((1R,4S)-4-((((3R,5aS,6R,8aS, 9R,10S,12R, 12aR)-3,6,9-trimethyldeca-hydro-12H-3,12-epoxy[1,2]dioxepino[4,3-i]isochromen-10-yl)oxy)methyl)cyclohexane-1-carboxamido) cyclobutane-1-carboxylic acid] | 214 nM | 18800 nM | –
C[C@H]1[C@@H](OC[C@H]2CC[C@@H](C(=O)N[C@H](C(=O)O)C(C)(C)C)CC2)O[C@@H]2O[C@@]3(C)CC[C@H]4[C@H](C)CC[C@@H]1[C@@]24OO3 [Compound 242, (S)-3,3-dimethyl-2-((1R,4R)-4-((((3R,5aS,6R,8aS, 9R,10S,12R, 12aR)-3,6,9-trimethyldeca-hydro-12H-3,12-epoxy[1,2]dioxepino[4,3-i]isochromen-10-yl)oxy)methyl)cyclohexane-1-carboxamido) butanoic acid] | 21.3 nM | 1270 nM | –
C[C@H]1[C@@H](Oc2ccc(O[C@H]3CC[C@@H](C(=O)O)CC3)cc2)O[C@@H]2O[C@@]3(C)CC[C@H]4[C@H](C)CC[C@@H]1[C@@]24OO3 [Compound 243, (1R,4s)-4-(4-(((3R,5aS,6R,8aS, 9R,10S,12R, 12aR)-3,6,9-trimethyldeca-hydro-12H-3,12-epoxy[1,2]dioxepino[4,3-i]isochromen-10-yl)oxy)phenoxy) cyclohexane-1-carboxylic acid] | 74.2 nM | 720 nM | –
C[C@H]1[C@@H](Oc2ccc(C(=O)N3CC(C(=O)O)C3)cc2Cl)O[C@@H]2O[C@@]3(C)CC[C@H]4[C@H](C)CC[C@@H]1[C@@]24OO3 [Compound 244, 1-(3-chloro-4-(((3R,5aS,6R,8aS, 9R,10S,12R, 12aR)-3,6,9-trimethyldeca-hydro-12H-3,12-epoxy[1,2]dioxepino[4,3-i]isochromen-10-yl)oxy)benzoyl) azetidine-3-carboxylic acid] | 101 nM | 2460 nM | –
C[C@H]1[C@@H](Oc2ccc(Cn3cc(C(=O)O)nn3)cc2)O[C@@H]2O[C@@]3(C)CC[C@H]4[C@H](C)CC[C@@H]1[C@@]24OO3 [Compound 245, 1-(4-(((3R,5aS,6R,8aS, 9R,10S,12R, 12aR)-3,6,9-trimethyldeca-hydro-12H-3,12-epoxy[1,2]dioxepino[4,3-i]isochromen-10-yl)oxy)benzyl)-1H-1,2,3-triazole-4-carboxylic acid] | 1340 nM | > 20000 nM | –
C[C@H]1[C@@H](Oc2ccc(C(=O)Nc3ccc(C(=O)O)cc3)cc2)O[C@@H]2O[C@@]3(C)CC[C@H]4[C@H](C)CC[C@@H]1[C@@]24OO3 [Compound 246, 4-(4-(((3R,5aS,6R,8aS, 9R,10S,12R, 12aR)-3,6,9-trimethyldeca-hydro-12H-3,12-epoxy[1,2]dioxepino[4,3-i]isochromen-10-yl)oxy)benzamido) benzoic acid] | 15.8 nM | 40 nM | –
C[C@H]1[C@@H](Oc2ccc(C(=O)N3CC[C@@H](C(=O)O)C3)cc2Cl)O[C@@H]2O[C@@]3(C)CC[C@H]4[C@H](C)CC[C@@H]1[C@@]24OO3 [Compound 247, (R)-1-(3-chloro-4-(((3R,5aS,6R,8aS, 9R,10S,12R, 12aR)-3,6,9-trimethyldeca-hydro-12H-3,12-epoxy[1,2]dioxepino[4,3-i]isochromen-10-yl)oxy)benzoyl) pyrrolidine-3-carboxylic acid] | 56.1 nM | 1420 nM | –
CO[C@H](C)[C@H](NC(=O)c1ccc(O[C@H]2O[C@@H]3O[C@@]4(C)CC[C@H]5[C@H](C)CC[C@@H]([C@H]2C)[C@@]35OO4)cc1)C(=O)O [Compound 248, O-methyl-N-(4-(((3R,5aS,6R,8aS, 9R,10S,12R, 12aR)-3,6,9-trimethyldeca-hydro-12H-3,12-epoxy[1,2]dioxepino[4,3-i]isochromen-10-yl)oxy)benzoyl)-L-threonine] | 412 nM | > 20000 nM | –
C[C@H]1[C@@H](O[C@H]2CC[C@@H](C(=O)N[C@H](C(=O)O)C(C)(C)O)CC2)O[C@@H]2O[C@@]3(C)CC[C@H]4[C@H](C)CC[C@@H]1[C@@]24OO3 [Compound 249, (S)-3-hydroxy-3-methyl-2-((1R,4R)-4-(((3R,5aS,6R,8aS, 9R,10S,12R, 12aR)-3,6,9-trimethyldeca-hydro-12H-3,12-epoxy[1,2]dioxepino[4,3-i]isochromen-10-yl)oxy)cyclo-hexane-1-carboxamido) butanoic acid] | 20000 nM | > 20000 nM | –
C[C@H]1[C@@H](Oc2ccc(OCCC(=O)O)cc2)O[C@@H]2O[C@@]3(C)CC[C@H]4[C@H](C)CC[C@@H]1[C@@]24OO3 [Compound 250, 3-(4-(((3R,5aS,6R,8aS, 9R,10S,12R, 12aR)-3,6,9-trimethyldeca-hydro-12H-3,12-epoxy[1,2]dioxepino[4,3-i]isochromen-10-yl)oxy)phenoxy) propanoic acid] | 88.2 nM | 17600 nM | –
C[C@H]1[C@@H](Oc2ccc(C(=O)N[C@H](C(=O)O)C3CCC3)cc2)O[C@@H]2O[C@@]3(C)CC[C@H]4[C@H](C)CC[C@@H]1[C@@]24OO3 [Compound 251, (S)-2-cyclobutyl-2-(4-(((3R,5aS,6R,8aS, 9R,10S,12R, 12aR)-3,6,9-trimethyldeca-hydro-12H-3,12-epoxy[1,2]dioxepino[4,3-i]isochromen-10-yl)oxy)benzamido) acetic acid] | 98.2 nM | 1520 nM | –
C[C@H]1[C@@H](O[C@H]2CC[C@@H](C(=O)N[C@H](C(=O)O)C3CCC3)CC2)O[C@@H]2O[C@@]3(C)CC[C@H]4[C@H](C)CC[C@@H]1[C@@]24OO3 [Compound 252, (S)-2-cyclobutyl-2-((1R,4R)-4-(((3R,5aS,6R,8aS, 9R,10S,12R, 12aR)-3,6,9-trimethyldeca-hydro-12H-3,12-epoxy[1,2]dioxepino[4,3-i]isochromen-10-yl)oxy)cyclohexane-1-carboxamido) acetic acid] | 242 nM | > 20000 nM | –
C[C@H]1[C@@H](OCC23[C@H]4[C@H]5[C@@H]2[C@H]2[C@@H]3[C@@H]4C52C(=O)O)O[C@@H]2O[C@@]3(C)CC[C@H]4[C@H](C)CC[C@@H]1[C@@]24OO3 (stereo partly drawn) [Compound 253, (2S,3S,5S,6S,7S, 8S)-4-((((3R,5aS,6R,8aS, 9R,10S,12R, 12aR)-3,6,9-trimethyldeca-hydro-12H-3,12-epoxy[1,2]dioxepino[4,3-i]isochromen-10-yl)oxy)methyl) cubane-1-carboxylic acid] | 237 nM | > 20000 nM | –
C[C@H]1[C@@H](Oc2ccc(C(=O)N[C@H](C(=O)O)C(C)(C)O)cc2)O[C@@H]2O[C@@]3(C)CC[C@H]4[C@H](C)CC[C@@H]1[C@@]24OO3 [Compound 254, (S)-3-hydroxy-3-methyl-2-(4-(((3R,5aS,6R,8aS, 9R,10S,12R, 12aR)-3,6,9-trimethyldeca-hydro-12H-3,12-epoxy[1,2]dioxepino[4,3-i]isochromen-10-yl)oxy)benzamido) butanoic acid] | 4580 nM | > 20000 nM | –
C[C@H]1[C@@H](O[C@H]2C[C@@H](C(=O)NC34C5C6C3C3C4C5C63C(=O)O)C2)O[C@@H]2O[C@@]3(C)CC[C@H]4[C@H](C)CC[C@@H]1[C@@]24OO3 (stereo partly drawn) [Compound 255, 4-((1R,3s)-3-(((3R,5aS,6R,8aS, 9R,10S,12R, 12aR)-3,6,9-trimethyldeca-hydro-12H-3,12-epoxy[1,2]dioxepino[4,3-i]isochromen-10-yl)oxy)cyclo-butane-1-carboxamido) cubane-1-carboxylic acid] | 2320 nM | > 20000 nM | –
